Converted amounts (≈) assume the structure as drawn.
What follows are molecules tested on Mtb H37Rv-WT (assay: MIC by resazurin microtiter assay (REMA) against Mtb). Conditions: Mycobacterium tuberculosis, 144 h, REMA, 37° C., 6 days, read-out: MIC (μM) H37Rv-WT.
Format: cell-based
Work on `CC(C)[C@H]1CO[C@]23CCN(C(=O)OCCc4ccc(C(F)(F)F)cc4)C[C@H]2CCC(=O)N13` yielded an MIC of 1 to 10 µM (≈ 0.454 to 4.54 µg/mL).
`CC(C)[C@H]1CO[C@]23CCN(C(=O)OCCCc4ccc(C(F)(F)F)cc4)C[C@H]2CCC(=O)N13` was tested, and the MIC was 1 to 10 µM (≈ 0.469 to 4.69 µg/mL).
For `CC(C)[C@H]1CO[C@]23CCN(Cc4ccc(C(F)(F)F)cc4)C[C@H]2C[C@@H](C)C(=O)N13`, the MIC was under 1 µM.
`CC(C)[C@H]1CO[C@]23CCN(S(=O)(=O)CCCc4ccc(C(F)(F)F)cc4)C[C@H]2CCC(=O)N13` gave an MIC of under 1 µM.
Work on `CC(C)[C@H]1CO[C@]23CCN(Cc4cc5ccccc5n4C)C[C@H]2CCC(=O)N13` yielded an MIC of under 1 µM.
`CC(C)[C@H]1CO[C@]23CCN(Cc4ccc(OC(F)(F)F)cc4)C[C@H]2CCC(=O)N13` was tested, and the MIC was under 1 µM.
`CC(C)[C@H]1CO[C@]23CCN(S(=O)(=O)Cc4ccc(C(F)(F)F)cc4)C[C@H]2CCC(=O)N13` was tested, and the MIC was under 1 µM.
`C=C[C@H]1CO[C@]23CCN(Cc4ccc(C(F)(F)F)cc4)C[C@H]2CCC(=O)N13` showed an MIC of over 10 µM.
Molecule `CC(C)[C@H]1CO[C@]23CC[C@@H](N(Cc4ccc(C(F)(F)F)cc4)Cc4ccc(C(F)(F)F)cc4)C[C@H]2CCC(=O)N13` has an MIC of under 1 µM.
Work on `CC(C)[C@H]1CO[C@]23CC[C@H](NCc4ccc(C(F)(F)F)cc4)C[C@H]2CCC(=O)N13` yielded an MIC of under 1 µM.
In the case of `CC(C)[C@H]1CO[C@]23CC[C@H](N(Cc4ccc(C(F)(F)F)cc4)Cc4ccc(C(F)(F)F)cc4)C[C@H]2CCC(=O)N13`, the MIC is reported as under 1 µM.
For `CC(C)[C@H]1CCO[C@]23CCN(Cc4ccc(C(F)(F)F)cc4)C[C@H]2CCC(=O)N13`, the MIC was 1 to 10 µM (≈ 0.41 to 4.1 µg/mL).
`CC(C)[C@H]1CO[C@]23CCN(Cc4ccc(C(F)(F)F)cc4)C[C@H]2C[C@H](C)C(=O)N13` (single isomer, unassigned) was tested, and the MIC was 1 to 10 µM (≈ 0.41 to 4.1 µg/mL).
`CC(C)[C@H]1CO[C@]23CCN(Cc4ccccc4)C[C@H]2CC(=O)N13` [(1R,4S,8R)-10-benzyl-4-isopropyl-2-oxa-5,10-diazatricyclo[6.4.0.01,5]dodecan-6-one] was tested, and the MIC was 1 to 10 µM (≈ 0.314 to 3.14 µg/mL).
`CC(C)[C@H]1CO[C@]23CCN(Cc4ccc(C(F)(F)F)cc4)C[C@H]2OCC(=O)N13` [(1R,4S,9R)-4-isopropyl-11-[[4-(trifluoromethyl)phenyl]methyl]-2,8-dioxa-5,11-diazatricyclo[7.4.0.01,5]tridecan-6-one] showed an MIC of 1 to 10 µM (≈ 0.398 to 3.98 µg/mL).
Molecule `CC(C)[C@H]1CO[C@]23CCN(Cc4ccc(C(F)(F)F)cc4)[C@H]2CCC(=O)N13` [(1R,4S,9S)-4-isopropyl-10-[[4-(trifluoromethyl)phenyl]methyl]-2-oxa-5,10-diazatricyclo[7.3.0.01,5]dodecan-6-one] has an MIC of under 1 µM.
Molecule `O=C1CC[C@@H]2CN(Cc3ccccc3)CC[C@@]23N[C@H]2CCCC[C@@H]2N13` [(1S,6R,11S,16S)-4-benzyl-4,10,17-triazatetracyclo[8.7.0.01,6.011,16] heptadecan-9-one] has an MIC of over 10 µM.
With `O=C1CC[C@@H]2CN(Cc3ccc(C(F)(F)F)cc3)CC[C@@]23OC[C@H](C(F)(F)F)N13` [(3R,7aR,11aR)-3-(trifluoromethyl)-9-[[4-(trifluoromethyl)phenyl]methyl]-2,3,6,7,7a,8,10,11-octahydrooxazolo[2,3-j][1,6]naphthyridin-5-one] the MIC was over 10 µM.
Molecule `C=CC[C@@H]1C[C@@H]2CN(Cc3ccc(C(F)(F)F)cc3)CC[C@@]23OC[C@H](C(C)C)N3C1=O` [(3S,6R,7aR,11aR)-6-allyl-3-isopropyl-9-[[4-(trifluoromethyl)phenyl]methyl]-2,3,6,7,7a,8,10,11-octahydrooxazolo[2,3-j][1,6]naphthyridin-5-one] has an MIC of 1 to 10 µM (≈ 0.437 to 4.37 µg/mL).
In the case of `CC[C@@H]1C[C@@H]2CN(Cc3ccc(C(F)(F)F)cc3)CC[C@@]23OC[C@H](C(C)C)N3C1=O` [(3S,6R,7aR,11aR)-6-ethyl-3-isopropyl-9-[[4-(trifluoromethyl)phenyl]methyl]-2,3,6,7,7a,8,10,11-octahydrooxazolo[2,3-j][1,6]naphthyridin-5-one], the MIC is reported as under 1 µM.
Work on `CC(C)C[C@@H]1C[C@@H]2CN(Cc3ccc(C(F)(F)F)cc3)CC[C@@]23OC[C@H](C(C)C)N3C1=O` [(3S,6R,7aR,11aR)-6-isobutyl-3-isopropyl-9-[[4-(trifluoromethyl)phenyl]methyl]-2,3,6,7,7a,8,10,11-octahydrooxazolo[2,3-j][1,6]naphthyridin-5-one] yielded an MIC of over 10 µM.
`C=CC[C@H]1C[C@@H]2CN(Cc3ccc(C(F)(F)F)cc3)CC[C@@]23OC[C@H](C(C)C)N3C1=O` [(3S,6S,7aR,11aR)-6-allyl-3-isopropyl-9-[[4-(trifluoromethyl)phenyl]methyl]-2,3,6,7,7a,8,10,11-octahydrooxazolo[2,3-j][1,6]naphthyridin-5-one] gave an MIC of over 10 µM.
With `CC[C@H]1C[C@@H]2CN(Cc3ccc(C(F)(F)F)cc3)CC[C@@]23OC[C@H](C(C)C)N3C1=O` [(3S,6S,7aR,11aR)-6-ethyl-3-isopropyl-9-[[4-(trifluoromethyl)phenyl]methyl]-2,3,6,7,7a,8,10,11-octahydrooxazolo[2,3-j][1,6]naphthyridin-5-one] the MIC was over 10 µM.
Molecule `CC(C)[C@H]1CO[C@]23CCN(Cc4ccc5ncccc5c4)C[C@H]2CCC(=O)N13` [(3S,7aR,11aR)-3-isopropyl-9-(6-quinolylmethyl)-2,3,6,7,7a,8,10,11-octahydrooxazolo[2,3-j][1,6]naphthyridin-5-one] has an MIC of 1 to 10 µM (≈ 0.38 to 3.8 µg/mL).
Molecule `Cc1ccc(CN2CC[C@]34OC[C@H](C(C)C)N3C(=O)CC[C@@H]4C2)cc1` [(3S,7aR,11aR)-3-isopropyl-9-(p-tolylmethyl)-2,3,6,7,7a,8,10,11-octahydrooxazolo[2,3-j][1,6]naphthyridin-5-one] has an MIC of 1 to 10 µM (≈ 0.342 to 3.42 µg/mL).
For `CC(C)[C@H]1CO[C@]23CCN(CC4CCCO4)C[C@H]2CCC(=O)N13` (stereo partly drawn) [(3S,7aR,11aR)-3-isopropyl-9-(tetrahydrofuran-2-ylmethyl)-2,3,6,7,7a,8,10,11-octahydrooxazolo[2,3-j][1,6]naphthyridin-5-one], the MIC was over 10 µM.
`CC(C)[C@H]1CO[C@]23CCN(CC4CCCCO4)C[C@H]2CCC(=O)N13` (stereo partly drawn) [(3S,7aR,11aR)-3-isopropyl-9-(tetrahydropyran-2-ylmethyl)-2,3,6,7,7a,8,10,11-octahydrooxazolo[2,3-j][1,6]naphthyridin-5-one] was tested, and the MIC was 1 to 10 µM (≈ 0.336 to 3.36 µg/mL).
`CC(C)[C@H]1CO[C@]23CCN(CC4CCOCC4)C[C@H]2CCC(=O)N13` [(3S,7aR,11aR)-3-isopropyl-9-(tetrahydropyran-4-ylmethyl)-2,3,6,7,7a,8,10,11-octahydrooxazolo[2,3-j][1,6]naphthyridin-5-one] gave an MIC of over 10 µM.
With `CC(C)[C@H]1CO[C@]23CCN(C(=O)Cc4ccc(C(F)(F)F)cc4)C[C@H]2CCC(=O)N13` [(3S,7aR,11aR)-3-isopropyl-9-[2-[4-(trifluoromethyl)phenyl]acetyl]-2,3,6,7,7a,8,10,11-octahydrooxazolo[2,3-j][1,6]naphthyridin-5-one] the MIC was over 10 µM.
In the case of `CC(C)[C@H]1CO[C@]23CCN(S(=O)(=O)CCc4ccc(C(F)(F)F)cc4)C[C@H]2CCC(=O)N13` [(3S,7aR,11aR)-3-isopropyl-9-[2-[4-(trifluoromethyl)phenyl]ethylsulfonyl]-2,3,6,7,7a,8,10,11-octahydrooxazolo[2,3-j][1,6]naphthyridin-5-one], the MIC is reported as under 1 µM.

Same assay, conditions: Mycobacterium tuberculosis, 144 h, read-out: MIC (μM) H37Rv-WT
In the case of `CC(C)[C@H]1CO[C@]23CCN(Cc4ccncc4)C[C@H]2CCC(=O)N13` [(3S,7aR,11aR)-3-isopropyl-9-(4-pyridylmethyl)-2,3,6,7,7a,8,10,11-octahydrooxazolo[2,3-j][1,6]naphthyridin-5-one], the MIC is reported as over 10 µM.

From patent US20250353863A1, “TRICYCLIC SPIROLACTAM COMPOUNDS WITH ANTIMYCOBACTERIAL ACTIVITY” (priority 2022, published 2025)
